Measurements reported in patent publication US12187722B2, “Small molecule inhibitors of TEAD transcription factors” (The General Hospital Corporation, priority 2019, dated 2025).

Molecular target: TEAD2 (Homo sapiens (Human), UniProt Q15562)
Assay: In vitro palmitoylation (TEAD2 autopalmitoylation, streptavidin blot)
Type: biochemical
Conditions: compound at 10 μM
Procedure: Recombinant GST-TEAD2 or His6TEAD2 (500 ng) protein was pre-incubated with the compounds at indicated concentrations for 15 min. and then incubated with 1 μM of alkyne palmitoyl-5 CoA (Cayman Chemical) for 30 min or 50 mM MES, pH 6.4, followed by Click reaction with biotin-azide as previously described (Zheng, B. et al., J. Am. Chem. Soc., 2013, 135, 7082-7085). Click reaction was performed with 100 μM biotin-azide, 1 mM tris(2-carboxyethyl) phosphine hydrochloride (TCEP), 100 μM tris[(1-benzyl-1H-1,2,3-triazol-4-yl) methyl] amine (TBTA) and 1 mM CuSO4 for 1 h at RT.
The reactions were terminated by the addition of 12 μL of 6×SDS-sample loading buffer (50 mM Tris-HCl, pH 6.8, 6% SDS, 48% Glycerol, 0.03% Bromophenol Blue, 30 mM EDTA, 9% MeSH). Samples were analysed by SDS-PAGE and Western blot was performed by probing with streptavidin HRP and histidine HRP antibodies independently. Bands intensity obtained from streptavidin blot were quantified using BIORAD, Gel doc system and the percentage of inhibition of Tead2 auto palmitoylation is determined by comparing to the DMSO control treated samples.
These compounds were tested for activity in inhibiting TEAD2 palmitoylation in the assay described above.

TEAD2, sequence (Q15562 whole entry): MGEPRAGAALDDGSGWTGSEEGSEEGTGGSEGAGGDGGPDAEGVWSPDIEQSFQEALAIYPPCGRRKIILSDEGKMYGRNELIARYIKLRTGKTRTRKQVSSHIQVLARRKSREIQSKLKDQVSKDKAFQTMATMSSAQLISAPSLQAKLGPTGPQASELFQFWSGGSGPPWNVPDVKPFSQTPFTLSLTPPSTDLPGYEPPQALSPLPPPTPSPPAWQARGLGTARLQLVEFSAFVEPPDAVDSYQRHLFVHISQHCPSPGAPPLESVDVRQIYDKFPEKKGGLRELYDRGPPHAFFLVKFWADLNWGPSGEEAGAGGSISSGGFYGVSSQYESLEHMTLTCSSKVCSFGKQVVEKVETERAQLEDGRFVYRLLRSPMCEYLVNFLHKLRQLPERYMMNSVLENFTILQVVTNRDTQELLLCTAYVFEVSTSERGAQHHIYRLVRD

| inhibition at 10 µM (Table 3) [%] | inhibition at 10 µM (Table 2) [%] | Structure (SMILES) |
| --- | --- | --- |
| 76 |  | COc1ccc(Nc2ccc(N(C)c3ccc(C(F)(F)F)c(Cl)c3)cc2)c(C(=O)O)c1 [CP-617] |
| 31 |  | COc1ccc(Nc2ccc(N(C)c3cc(C4CCCCC4)nn3C)cc2)c(C(=O)O)c1 [CP-618] |
| 0 |  | Cc1cc(N(C)c2ccc(C3CCCCC3)cc2)ccc1Nc1ccc(NC2CCOCC2)cc1C(=O)O [CP-620] |
| 47 |  | Cc1cc(N(C)c2ccc(C3CCCCC3)cc2)ccc1Nc1ccc(N2CCOCC2)cc1C(=O)O [CP-621] |
| 94 |  | COc1ccc(Nc2ccc(N(C)c3ccc(SC(F)(F)F)cc3)cc2)c(C(=O)O)c1 [CP-622] |
| 73 |  | COc1ccc(Nc2ccc(C3CC3)cc2N(C)c2ccc(C3CCCCC3)cc2)c(C(=O)O)c1 [CP-623] |
| 15 |  | COc1ccc(Nc2ccc(N(C)c3cc(C(F)(F)F)nn3C)cc2)c(C(=O)O)c1 [CP-624] |
| 87 |  | Cc1cc(N(C)c2ccc(C3CCCCC3)cc2)ccc1Nc1ccc(F)cc1C(=O)O [CP-625] |
| 51 |  | Cc1cc(N(C)c2ccc(C3CCCCC3)cc2)ccc1Nc1ccc(N2CC3(COC3)C2)cc1C(=O)O [CP-627] |
| 40 |  | CCCCOc1ccc(Nc2ccc(N(C)c3ccc(C4CCCCC4)cc3)cc2C)c(C(=O)O)c1 [CP-628] |
| 24 |  | COc1ccc(Nc2ccc(N(C)c3ccc(C4CCCCC4)cc3)cc2C)c(C(F)(F)F)c1 [CP-629] |
| 39 |  | Cc1cc(N(C)c2ccc(C3CCCCC3)cc2)ccc1Nc1ccc(C2CC2)cc1C(=O)O [CP-630] |
| 81 |  | Cc1ccc(Nc2ccc(N(C)c3ccc(C4CCCCC4)cc3)cc2C)c(C(=O)O)c1 [CP-631] |
| 73 |  | CNC(=O)c1ccc(Nc2ccc(N(C)c3ccc(C4CCCCC4)cc3)cc2C)c(C(=O)O)c1 [CP-632] |
| 25 |  | Cc1cc(N(C)c2ccc(C3CCCCC3)cc2)ccc1Nc1ccc(OCC(C)(C)C)cc1C(=O)O [CP-633] |
| 32 |  | Cc1cc(N(C)c2ccc(C3CCCCC3)cc2)ccc1Nc1ccc(OC2CCCCC2)cc1C(=O)O [CP-634] |
| 68 |  | Cc1cc(N(C)c2ccc(C3CCCCC3)cc2)ccc1Nc1cccc(C(=O)O)n1 [CP-636] |
| 5 |  | CNCc1ccc(Nc2ccc(N(C)c3ccc(C4CCCCC4)cc3)cc2C)c(C(=O)O)c1 [CP-637] |
| 67 |  | O=C(O)c1cccc(NC(=O)c2ccc(Nc3ccc(C4CCCCC4)cc3)cc2)c1 [CP-638] |

| inhibition at 10 µM (Table 3) [%] | inhibition at 10 µM (Table 2) [%] | Structure (SMILES) |
| --- | --- | --- |
| 20 |  | Cc1cc(N(C)c2ccc(C3CCCCC3)cc2)ccc1Nc1ccc(CN(C)C)cc1C(=O)O [CP-640] |
| 69 |  | O=C(O)c1cccc(Nc2cc(Nc3ccc(C4CCCCC4)cc3)cc(C(F)(F)F)c2)n1 [CP-641] |
| 55 |  | Cc1cc(C(=O)Nc2ccc(C3CCCCC3)cc2)ccc1Nc1cccc(C(=O)O)n1 [CP-642] |
| 89 |  | CN(c1ccc(C2CCCCC2)cc1)c1ccc(Nc2cccc(C(=O)O)n2)cn1 [CP-643] |
| 39 |  | Cc1cc(N(C)c2ccc(OCC(F)(F)F)cc2)ccc1Nc1cccc(C(=O)O)n1 [CP-646] |
| 87 |  | Cc1cc(N(C)c2ccc(OC(F)(F)F)cc2)ccc1Nc1cccc(C(=O)O)n1 [CP-647] |
| 89 |  | CN(c1ccc(Nc2cccc(C(=O)O)n2)cc1)c1ccc(C(F)(F)F)cc1 [CP-648] |
| 99 |  | Cc1cc(Nc2ccc(C3CCCCC3)cc2)ccc1C(=O)Nc1cccc(C(=O)O)c1 [CP-649] |
| 93 |  | COc1ccc(Nc2ccc(Nc3ccc(C45CC6CC(CC(C6)C4)C5)cc3Cl)cc2)nc1C(=O)O [CP-650] |
| 85 |  | Cc1cc(C(=O)Nc2cccc(C(=O)O)c2)ccc1Nc1ccc(C2CCCCC2)cc1 [CP-651] |
| 37 |  | Cc1cc(N(C)c2ccc(C3CCCCC3)cc2)ncc1Nc1cccc(C(=O)O)n1 [CP-652] |
| 24 |  | CNC(=O)c1nc(Nc2ccc(N(C)c3ccc(C4CCCCC4)cc3)cc2C)ccc1S(=O)(=O)NC [CP-653] |
| 36 |  | COc1ccc(Nc2ccc(N(C)c3ccc(C4CCCCC4)cc3)nc2)nc1C(=O)O [CP-654] |
| 90 |  | CNS(=O)(=O)c1ccc(Nc2ccc(N(C)c3ccc(C4CCCCC4)cc3)cc2C)nc1C(=O)O [CP-656] |
| 18 |  | CNS(=O)(=O)c1ccc(Nc2ccc(N(C)c3ccc(C4CCCCC4)cc3)cc2C)c(C#N)c1 [CP-657] |
| 46 |  | CN(c1ccc(Nc2cccc(C(=O)O)n2)cn1)c1ccc(C2CCCCC2)cc1Cl [CP-659] |
| 66 |  | O=C(O)c1cccc(Nc2cc(Nc3ccc(C4CCCCC4)cc3Cl)cc(C(F)(F)F)c2)n1 [CP-660] |
| 77 |  | COc1ccc(Nc2cc(Nc3ccc(C4CCCCC4)cc3)cc(C(F)(F)F)c2)nc1C(=O)O [CP-661] |
| 88 |  | O=C(O)c1cccc(Nc2cc(Nc3ccc(C4CCCCC4)cc3)cc(C(F)(F)F)c2)c1 [CP-662] |

| inhibition at 10 µM (Table 3) [%] | inhibition at 10 µM (Table 2) [%] | Structure (SMILES) |
| --- | --- | --- |
| 45 |  | CN(c1ccc(C2CCCCC2)cc1)c1cc(C2CC2)c(Nc2cccc(C(=O)O)n2)cn1 [CP-663] |
| 50 |  | O=C(Nc1ccc(C2CCCCC2)cc1)c1cccc(Nc2ccccc2C(=O)O)c1 [CP-664] |
| 96 |  | O=C(Nc1ccc(C2CCCCC2)cc1Cl)c1cccc(Nc2ncccc2C(=O)O)c1 [CP-665] |
| 79 |  | O=C(Nc1ccc(C2CCCCC2)cc1Cl)c1cccc(Nc2ccccc2C(=O)O)c1 [CP-666] |
| 75 |  | COc1ccc(Nc2cccc(C(=O)Nc3ccc(C4CCCCC4)cc3Cl)c2)c(C(=O)O)c1 [CP-669] |
| 97 |  | CNS(=O)(=O)c1ccc(Nc2ccc(N(C)c3ccc(C4CCCCC4)cc3Cl)cc2C)c(C(=O)O)c1 [CP-671] |
| 55 |  | O=C(Nc1ccc(C2CCCCC2)cc1Cl)c1cccc(Nc2ccc(OC3CC3)cc2C(=O)O)c1 [CP-672] |
| 15 |  | Cc1cc(N(C)c2ccc(C3CCCCC3)cc2)ncc1Nc1ccc(OC2CC2)cc1C(=O)O [CP-673] |
| 83 |  | COc1ccc(Nc2cc(Nc3ccc(C4CCCCC4)cc3Cl)cc(C(F)(F)F)c2)nc1C(=O)O [CP-675] |
| 97 |  | O=C(O)c1cccc(Nc2cc(Nc3ccc(C4CCCCC4)cc3Cl)cc(C(F)(F)F)c2)c1 [CP-676] |
| 96 |  | O=C(O)c1cccnc1Nc1cccc(Nc2ccc(C3CCCCC3)cc2Cl)c1 [CP-677] |
| 59 |  | Cc1cc(N(C)c2ccc(C3CCCCC3)cc2)ccc1Nc1ccc(C(=O)N2CC(C#N)C2)cc1C(=O)O [CP-678] |
| 81 |  | Cc1cc(N(C)c2ccc(C3CCCCC3)cc2)ccc1Nc1ccc(C(=O)N2CC(C(N)=O)C2)cc1C(=O)O [CP-679] |
| 8 |  | Cc1cc(N(C)c2ccc(C3CCCCC3)cc2Cl)ccc1Nc1cccc(C(=O)O)n1 [CP-681] |
| 51 |  | O=C(O)c1cccc(Nc2cccc(Nc3ccc(C4CCCCC4)cc3Cl)c2)n1 [CP-682] |
| 17 |  | N#Cc1cccc(Nc2ccc(Nc3ccc(C45CC6CC(CC(C6)C4)C5)cc3Cl)cc2)n1 [CP-688] |
| 79 |  | CNS(=O)(=O)c1cccc(Nc2ccc(Nc3ccc(C45CC6CC(CC(C6)C4)C5)cc3Cl)cc2)n1 [CP-694] |
|  | 10 | COC(=O)c1ccccc1Nc1cccc(Nc2ccc(C34CC5CC(CC(C5)C3)C4)cc2)c1 [Compound 1] |

| Structure (SMILES) | inhibition at 10 µM (Table 3) [%] | inhibition at 10 µM (Table 2) [%] |
| --- | --- | --- |
| Cc1cc(N(C)c2ccc(C3CCCCC3)cc2)ccc1Nc1ccc(CN)cc1C(=O)O [CP-635] | 27 |  |
